US6355799B1, “Substituted benzene compounds, process for their preparation, and herbicidal and defoliant compositions containing them” (ISK Americas Incorporated, priority 1997, dated 2002)

Legend:
Assay type in all cases: in vivo
[1] = system: field corn (Zea mays L., var. Dekalb 535, CORN); assay: Post-emerge test, crop safety; conditions: phytotoxicity rating 0-100 (0 no damage, 100 complete death), 14 days after application
Summary of the method: (§1)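 Rating: 0–100 visual injury, 14 DAA. Application: acetone, 187 l/ha, 15–1000 g ai/ha, flat-fan track sprayer with nozzle 40–45 cm above soil or canopy. Post-emerge runs used 0.25% v/v surfactant on 2–3 leaf plants.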

[2] = system: upland rice (Oryza sp., var. Tebonnet, RICE); assay: Post-emerge test, crop safety; conditions: phytotoxicity rating 0-100 (0 no damage, 100 complete death), 14 days after application
Summary of the method: as §1

[3] = system: large crabgrass (Digitaria sanguinalis, DIGSA); assay: Post-emerge test, greenhouse herbicide activity screening; conditions: phytotoxicity rating 0-100 (0 no damage, 100 complete death), 14 days after application
Summary of the method: (§2)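 Visual ratings on a 0-100 scale (0 no damage, 100 all plants dead) were taken at 14 days after treatment. Rates of 15-1000 g ai/ha in acetone, 187 l/ha, were sprayed onto soil one day after planting (pre-emerge) or onto 2-3 leaf plants with 0.25% v/v surfactant (post-emerge).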

[4] = system: barnyardgrass (Echinochloa crus-galli, ECHCG); assay: as above; conditions: phytotoxicity rating 0-100 (0 no damage, 100 complete death), 14 days after application
Summary of the method: as §2

[5] = system: green foxtail (Setaria viridis, SETVI); assay: as above; conditions: phytotoxicity rating 0-100 (0 no damage, 100 complete death), 14 days after application
Summary of the method: as §2

[6] = system: ivyleaf morningglory (Ipomoea hederacea, IPOHE); assay: as above; conditions: phytotoxicity rating 0-100 (0 no damage, 100 complete death), 14 days after application
Summary of the method: as §2

[7] = system: lambsquarters (Chenopodium album, CHEAL); assay: as above; conditions: phytotoxicity rating 0-100 (0 no damage, 100 complete death), 14 days after application
Summary of the method: as §2

[8] = system: velvetleaf (Abutilon theophrasti, ABUTH); assay: as above; conditions: phytotoxicity rating 0-100 (0 no damage, 100 complete death), 14 days after application
Summary of the method: as §2

[9] = system: sicklepod (Cassia obtusifolia, CASOB); assay: as above; conditions: phytotoxicity rating 0-100 (0 no damage, 100 complete death), 14 days after application
Summary of the method: as §2

[10] = system: common ragweed (Ambrosia artemisizfolia L., AMBEL); assay: as above; conditions: phytotoxicity rating 0-100 (0 no damage, 100 complete death), 14 days after application
Summary of the method: as §2

[11] = system: redroot pigweed (Amaranthus retroflexus, AMARE); assay: as above; conditions: phytotoxicity rating 0-100 (0 no damage, 100 complete death), 14 days after application
Summary of the method: as §2

[12] = system: field corn (Zea mays L., var. Dekalb 535, CORN); assay: Pre-emerge test, crop safety; conditions: pre-emerge, rated 14 days after application, 0 = no damage, 100 = complete death
Summary of the method: (§3)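 Sandy loam pots; pre-emerge: sown 1 d pre-spray, surface-watered after, then bottom-watered. Post-emerge: sown 8–21 d before, 2–3 leaf stage, + 0.25% v/v NIS, bottom-watered. Acetone, 187 l/ha track spray, 15–1000 g ai/ha. 0–100 injury score, day 14.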

[13] = system: upland rice (Oryza sp., var. Tebonnet, RICE); assay: Pre-emerge test, crop safety; conditions: pre-emerge, rated 14 days after application, 0 = no damage, 100 = complete death
Summary of the method: as §3

[14] = system: large crabgrass (Digitaria sanguinalis, DIGSA); assay: Pre-emerge test, greenhouse herbicide activity screening; conditions: pre-emerge, rated 14 days after application, 0 = no damage, 100 = complete death
Summary of the method: (§4)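 Compounds in acetone were track-sprayed at 15–1000 g ai/ha: pre-emergence onto soil sown the previous day, then top-watered to incorporate and later bottom-watered; post-emergence onto 2–3 leaf plants with 0.25% v/v surfactant, bottom-watered only. Ratings on a 0–100 phytotoxicity scale were taken at day 14.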

[15] = system: barnyardgrass (Echinochloa crus-galli, ECHCG); assay: as above; conditions: pre-emerge, rated 14 days after application, 0 = no damage, 100 = complete death
Summary of the method: as §4

[16] = system: green foxtail (Setaria viridis, SETVI); assay: as above; conditions: pre-emerge, rated 14 days after application, 0 = no damage, 100 = complete death
Summary of the method: as §4

[17] = system: ivyleaf morningglory (Ipomoea hederacea, IPOHE); assay: as above; conditions: pre-emerge, rated 14 days after application, 0 = no damage, 100 = complete death
Summary of the method: as §4

[18] = system: lambsquarters (Chenopodium album, CHEAL); assay: as above; conditions: pre-emerge, rated 14 days after application, 0 = no damage, 100 = complete death
Summary of the method: as §4

[19] = system: johnsongrass (Sorghum halepense, SORHA); assay: as above; conditions: pre-emerge, rated 14 days after application, 0 = no damage, 100 = complete death
Summary of the method: as §4

[20] = system: velvetleaf (Abutilon theophrasti, ABUTH); assay: as above; conditions: pre-emerge, rated 14 days after application, 0 = no damage, 100 = complete death
Summary of the method: as §4

[21] = system: sicklepod (Cassia obtusifolia, CASOB); assay: as above; conditions: pre-emerge, rated 14 days after application, 0 = no damage, 100 = complete death
Summary of the method: as §4

[22] = system: common ragweed (Ambrosia artemisizfolia L., AMBEL); assay: as above; conditions: pre-emerge, rated 14 days after application, 0 = no damage, 100 = complete death
Summary of the method: as §4

[23] = system: redroot pigweed (Amaranthus retroflexus, AMARE); assay: as above; conditions: pre-emerge, rated 14 days after application, 0 = no damage, 100 = complete death
Summary of the method: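 Compounds in acetone were track-sprayed at 15-1000 g ai/ha (187 l/ha) on sandy loam pots: pre-emerge one day after seeding, post-emerge at 2-3 leaf stage with 0.25% v/v non-ionic surfactant. Phytotoxicity was rated 14 days later on a 0 (no damage) to 100 (complete death) scale.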

CCOC(=O)C(C)Nc1cc(Cl)cc(F)c1-n1c(=O)cc(C(F)(F)F)n(C)c1=O (stereo not shown) [Compound 1-54]
Post-emerge Herbicidal Activity CORN (crop damage) ([1]; 63 g ai/ha): 50
Post-emerge Herbicidal Activity CORN (crop damage) ([1]; 250 g ai/ha): 70
Post-emerge Herbicidal Activity RICE (crop damage) ([2]; 63 g ai/ha): 40
Post-emerge Herbicidal Activity RICE (crop damage) ([2]; 250 g ai/ha): 45
Post-emerge Herbicidal Activity DIGSA ([3]; 63 g ai/ha): 40
Post-emerge Herbicidal Activity DIGSA ([3]; 250 g ai/ha): 70
Post-emerge Herbicidal Activity ECHCG ([4]; 63 g ai/ha): 20
Post-emerge Herbicidal Activity ECHCG ([4]; 250 g ai/ha): 75
Post-emerge Herbicidal Activity SETVI ([5]; 63 g ai/ha): 40
Post-emerge Herbicidal Activity SETVI ([5]; 250 g ai/ha): 60
Post-emerge Herbicidal Activity IPOHE ([6]; 63 g ai/ha): 100
Post-emerge Herbicidal Activity IPOHE ([6]; 250 g ai/ha): 100
Post-emerge Herbicidal Activity CHEAL ([7]; 63 g ai/ha): 100
Post-emerge Herbicidal Activity CHEAL ([7]; 250 g ai/ha): 100
Post-emerge Herbicidal Activity ABUTH ([8]; 63 g ai/ha): 100
Post-emerge Herbicidal Activity ABUTH ([8]; 250 g ai/ha): 100
Post-emerge Herbicidal Activity CASOB ([9]; 63 g ai/ha): 90
Post-emerge Herbicidal Activity CASOB ([9]; 250 g ai/ha): 100
Post-emerge Herbicidal Activity AMBEL ([10]; 63 g ai/ha): 100
Post-emerge Herbicidal Activity AMBEL ([10]; 250 g ai/ha): 100
Post-emerge Herbicidal Activity AMARE ([11]; 63 g ai/ha): 100
Post-emerge Herbicidal Activity AMARE ([11]; 250 g ai/ha): 100
Pre-emerge crop damage CORN (phytotoxicity rating, scale 0-100) ([12]; 63 g ai/ha): 95
Pre-emerge crop damage CORN (phytotoxicity rating, scale 0-100) ([12]; 250 g ai/ha): 99
Pre-emerge crop damage RICE (phytotoxicity rating, scale 0-100) ([13]; 63 g ai/ha): 60
Pre-emerge crop damage RICE (phytotoxicity rating, scale 0-100) ([13]; 250 g ai/ha): 95
Pre-emerge Herbicidal Activity DIGSA (phytotoxicity rating, scale 0-100) ([14]; 63 g ai/ha): 80
Pre-emerge Herbicidal Activity DIGSA (phytotoxicity rating, scale 0-100) ([14]; 250 g ai/ha): 100
Pre-emerge Herbicidal Activity ECHCG (phytotoxicity rating, scale 0-100) ([15]; 63 g ai/ha): 45
Pre-emerge Herbicidal Activity ECHCG (phytotoxicity rating, scale 0-100) ([15]; 250 g ai/ha): 100
Pre-emerge Herbicidal Activity SETVI (phytotoxicity rating, scale 0-100) ([16]; 63 g ai/ha): 90
Pre-emerge Herbicidal Activity SETVI (phytotoxicity rating, scale 0-100) ([16]; 250 g ai/ha): 100
Pre-emerge Herbicidal Activity IPOHE (phytotoxicity rating, scale 0-100) ([17]; 63 g ai/ha): 100
Pre-emerge Herbicidal Activity IPOHE (phytotoxicity rating, scale 0-100) ([17]; 250 g ai/ha): 100
Pre-emerge Herbicidal Activity CHEAL (phytotoxicity rating, scale 0-100) ([18]; 63 g ai/ha): 100
Pre-emerge Herbicidal Activity CHEAL (phytotoxicity rating, scale 0-100) ([18]; 250 g ai/ha): 100
Pre-emerge Herbicidal Activity SORHA (phytotoxicity rating, scale 0-100) ([19]; 63 g ai/ha): 80
Pre-emerge Herbicidal Activity SORHA (phytotoxicity rating, scale 0-100) ([19]; 250 g ai/ha): 100
Pre-emerge Herbicidal Activity ABUTH (phytotoxicity rating, scale 0-100) ([20]; 63 g ai/ha): 100
Pre-emerge Herbicidal Activity ABUTH (phytotoxicity rating, scale 0-100) ([20]; 250 g ai/ha): 100
Pre-emerge Herbicidal Activity CASOB (phytotoxicity rating, scale 0-100) ([21]; 63 g ai/ha): 30
Pre-emerge Herbicidal Activity CASOB (phytotoxicity rating, scale 0-100) ([21]; 250 g ai/ha): 80
Pre-emerge Herbicidal Activity AMBEL (phytotoxicity rating, scale 0-100) ([22]; 63 g ai/ha): 100
Pre-emerge Herbicidal Activity AMBEL (phytotoxicity rating, scale 0-100) ([22]; 250 g ai/ha): 100
Pre-emerge Herbicidal Activity AMARE (phytotoxicity rating, scale 0-100) ([23]; 63 g ai/ha): 100
Pre-emerge Herbicidal Activity AMARE (phytotoxicity rating, scale 0-100) ([23]; 250 g ai/ha): 100
